Data reported in US20260083865A1, “PROSTATE SPECIFIC MEMBRANE ANTIGEN (PSMA) LIGANDS AND USE THEREOF” (priority 2022, published 2026).
Where two headings read alike, the source gives them in different places. Numbered stars: 1 amine (or outer) side, 2 acyl side, 3 side chain; on linkers, the order of the positions; unused ones are H or OH. Bridge positions count the residues as written; N and C are the ends. Square brackets hold non-standard residues; d marks the D form. Peptide text beside a SMILES is read from it. * marks the point of attachment. TtdsdLys(DOTA)NH2 = NC(=O)[C@@H](CCCCNC(=O)CN1CCN(CC(=O)O)CCN(CC(=O)O)CCN(CC(=O)O)CC1)NC(=O)CCC(=O)NCCCOCCOCCOCCCN*; DOTA = O=C(O)CN1CCN(CC(=O)O)CCN(CC(=O)*)CCN(CC(=O)O)CC1; Phe(4-Cl) = N[C@@H](Cc1ccc(Cl)cc1)C(=O)O; NMeF = CN[C@@H](Cc1ccccc1)C(=O)O; 4Pal = N[C@@H](Cc1ccncc1)C(=O)O; X1 = O=C(CC1CCN([*:1])CC1)[*:2]; Cit = NC(=O)NCCC[C@H](N)C(=O)O; Tle = CC(C)(C)[C@H](N)C(=O)O; 4Amb = NCc1ccc(C(=O)O)cc1; αMeS = C[C@](N)(CO)C(=O)O; Aib = CC(C)(N)C(=O)O

Tests used:
[1] = biological target: T1, PSMA-expressing C4-2 cells (Homo sapiens, UniProt Q04609); assay: FACS binding assay (competition with 50 nM PSM-0183); settings: for IC50: read-out: pIC50 [C4-2] CAT (converted)
T1 construct: PSMA-expressing C4-2 cells (ATCC, Cat. No. CRL-3314) were cultured in RPMI-1640; host or cells: C4-2 cells
T1 sequence (Q04609 whole entry): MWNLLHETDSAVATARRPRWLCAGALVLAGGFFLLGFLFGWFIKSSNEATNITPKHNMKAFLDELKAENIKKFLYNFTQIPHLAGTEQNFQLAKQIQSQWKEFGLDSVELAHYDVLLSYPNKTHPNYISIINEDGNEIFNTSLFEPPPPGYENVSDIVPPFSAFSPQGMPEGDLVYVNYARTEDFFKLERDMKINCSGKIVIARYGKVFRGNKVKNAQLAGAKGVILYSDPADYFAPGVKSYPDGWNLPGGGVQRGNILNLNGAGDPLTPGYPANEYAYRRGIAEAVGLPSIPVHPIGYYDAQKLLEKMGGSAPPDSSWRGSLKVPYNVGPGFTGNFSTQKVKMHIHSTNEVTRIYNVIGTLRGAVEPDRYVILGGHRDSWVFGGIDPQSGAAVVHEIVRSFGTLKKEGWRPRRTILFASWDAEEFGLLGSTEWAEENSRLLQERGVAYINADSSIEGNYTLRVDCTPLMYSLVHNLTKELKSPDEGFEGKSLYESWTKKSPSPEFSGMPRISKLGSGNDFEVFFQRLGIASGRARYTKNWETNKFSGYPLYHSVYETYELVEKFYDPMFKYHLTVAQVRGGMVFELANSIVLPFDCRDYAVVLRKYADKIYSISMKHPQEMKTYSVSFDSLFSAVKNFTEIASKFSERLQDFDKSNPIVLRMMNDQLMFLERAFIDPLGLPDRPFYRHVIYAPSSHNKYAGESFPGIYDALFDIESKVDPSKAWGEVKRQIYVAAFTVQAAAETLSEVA
Outline: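 Competition format: fluorescent tracer PSM-0183 (50 nM) displaced from PSMA on C4-2 cells by a test compound titration over 1 h at 4 °C. Bound tracer was quantified as flow-cytometric AF488 median fluorescence after washing. Four-parameter logistic fits of MFI data gave IC50 and pIC50.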

[2] = biological target: T2, Fc-fusion protein of human PSMA (hPSMA-Fc) (Homo sapiens, UniProt Q04609); assay: Surface plasmon resonance assay (Biacore T200, single cycle kinetic); format: binding; settings: for Kd: read-out: pKD CAT (converted)
T2 construct: purchased Acro Biosystems PSA-H5264
T2 sequence (Q04609 44-750 limits assumed): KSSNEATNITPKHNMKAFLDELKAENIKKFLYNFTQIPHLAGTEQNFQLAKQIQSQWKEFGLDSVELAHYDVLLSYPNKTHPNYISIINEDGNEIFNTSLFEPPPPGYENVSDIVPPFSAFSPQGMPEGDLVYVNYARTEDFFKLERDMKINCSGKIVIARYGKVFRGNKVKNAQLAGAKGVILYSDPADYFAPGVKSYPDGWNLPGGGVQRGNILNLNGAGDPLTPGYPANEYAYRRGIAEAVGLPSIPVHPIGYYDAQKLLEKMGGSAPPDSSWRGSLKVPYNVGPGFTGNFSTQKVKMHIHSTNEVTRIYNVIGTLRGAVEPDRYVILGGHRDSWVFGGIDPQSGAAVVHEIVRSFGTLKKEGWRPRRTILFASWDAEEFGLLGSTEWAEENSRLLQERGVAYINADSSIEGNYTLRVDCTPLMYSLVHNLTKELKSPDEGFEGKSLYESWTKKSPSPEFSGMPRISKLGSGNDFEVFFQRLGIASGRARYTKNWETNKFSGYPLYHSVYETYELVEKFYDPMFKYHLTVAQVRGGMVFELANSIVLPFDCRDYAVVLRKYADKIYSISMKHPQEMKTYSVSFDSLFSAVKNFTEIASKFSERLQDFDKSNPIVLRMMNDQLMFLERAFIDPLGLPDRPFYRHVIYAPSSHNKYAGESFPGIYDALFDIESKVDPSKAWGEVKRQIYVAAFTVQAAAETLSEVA
Outline: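 KD, expressed as pKD, came from 1:1 Langmuir fits of reference- and buffer-blank-subtracted SPR data. The runs were single-cycle kinetics at 25° C in HBST/0.1% DMSO over human PSMA-Fc, captured to ~1000 RU on a peptide-coated CM5 surface and regenerated with 10 mM glycine pH 1.5.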

[3] = pIC50 category of FACS binding, C4-2 cells
[4] = pKD category for PSMA SPR activity assay, hPSMA-Fc, 25° C.
[5] = FACS binding, PSMA-expressing C4-2 cells, pIC50 category
[6] = PSMA SPR assay, hPSMA-Fc, 25° C., pKD category

| Compound | IC50 [1, 3] [µM] | Kd [2, 4] [µM] | other results |
| --- | --- | --- | --- |
| CC(=O)N[C@H](C(=O)NC(C)(C)C(=O)N[C@@H](Cc1ccc(Cl)cc1)C(=O)N[C@H]1CSSC[C@@H](C(=O)N[C@H](CC(C)C)C(=O)N[C@H](C(N)=O)[C@@H](C)O)NC(=O)[C@H](CC(N)=O)NC(=O)C(C)(C)NC(=O)[C@H](CCCNC(N)=O)NC(=O)[C@H](CCCCN)NC1=O)[C@@H](C)O [PSM-0421, Ac-Thr-Aib-Pcf-[Cys-Lys-Cit-Aib-Asn-Cys]-leu-Thr-NH2] (Ac-T[Aib][Phe(4-Cl)]CK[Cit][Aib]NC[dL]T-NH2; disulfide 4-9) | 0.2 to 1.26 | 0.126 to 0.501 | – |
| CC(=O)N[C@H](C(=O)N[C@@H](C)C(=O)N(C)[C@@H](Cc1ccccc1)C(=O)N[C@H]1CSSC[C@@H](C(=O)N[C@H](C(=O)N[C@H](C(N)=O)[C@@H](C)O)C(C)(C)C)NC(=O)[C@H](CC(N)=O)NC(=O)C(C)(C)NC(=O)[C@H](CCCNC(=N)N)NC(=O)[C@H](CCCCN)NC1=O)[C@@H](C)O [PSM-0319, Ac-Thr-Ala-Nmf-[Cys-Lys-Arg-Aib-Asn-Cys]-Tle-Thr-NH2] (Ac-TA[NMeF]CKR[Aib]NC[Tle]T-NH2; disulfide 4-9) | – | – | IC50 [1, 5]: < 0.2 µM; Kd [2, 6]: 0.0126 to 0.126 µM |
| CC(=O)N[C@H]1CSSC[C@@H](C(=O)N[C@@H](CC(C)C)C(=O)N[C@H](C(=O)N[C@@H](CC(=O)O)C(=O)NCCCOCCOCCOCCCNC(=O)CCC(=O)N[C@H](CCCCNC(=O)CN2CCN(CC(=O)O)CCN(CC(=O)O)CCN(CC(=O)O)CC2)C(N)=O)[C@@H](C)O)NC(=O)[C@H](CC(N)=O)NC(=O)[C@H](C)NC(=O)[C@H](CCCNC(=N)N)NC(=O)[C@H](CCCCN)NC1=O [PSM-0591, Ac-[Cys-Lys-Arg-Ala-Asn-Cys]-Leu-Thr-Asp-Ttds-lys(DOTA)-NH2] (Ac-CKRANCLTD-{TtdsdLys(DOTA)NH2}; disulfide 1-6) | – | – | IC50 ([1]; FACS binding, C4-2 cells, category): > 3.16 µM; Kd ([2]; PSMA SPR assay, category): > 0.501 µM |
| Ac-Thr-Aib-Phe-[Cys-Lys-Arg-Aib-Asn-Cys]-Tle-Thr-Cmp-lys (LuDOTA)-NH2 [PSM-0347] | – | – | pIC50 [C4-2] CAT [1, 5]: A (pIC50 values >6.7); pKD CAT [2, 6]: A (pKD values >7.9) |

The next lines start with results.

| IC50 [1, 3] [µM] | Kd [2, 4] [µM] | Compound | other results |
| --- | --- | --- | --- |
| 1.26 to 3.16 | 0.126 to 0.501 | C[C@@H](O)[C@H](NC(=O)[C@@H](NC(=O)[C@@H]1CSSC[C@H](NC(=O)[C@H](Cc2ccncc2)NC(=O)C(C)(C)NC(=O)[C@@H](NC(=O)CC2CCN(C(=O)CN3CCN(CC(=O)O)CCN(CC(=O)O)CCN(CC(=O)O)CC3)CC2)[C@@H](C)O)C(=O)N[C@@H](CCCCN)C(=O)N[C@@H](CCCNC(=N)N)C(=O)NC(C)(C)C(=O)N[C@@H](CC(N)=O)C(=O)N1)C(C)(C)C)C(N)=O [PSM-0454, DOTA-Cmp-Thr-Aib-Ppa-[Cys-Lys-Cit-Aib-Asn-Cys]-Tle-Thr-NH2] ({DOTA}-[X1]T[Aib][4Pal]CKR[Aib]NC[Tle]T-NH2; disulfide 5-10) | – |
| < 0.2 | 0.0126 to 0.126 | CC(C)(NC(=O)c1ccc(CNC(=O)CN2CCN(CC(=O)O)CCN(CC(=O)O)CCN(CC(=O)O)CC2)cc1)C(=O)N[C@@H](Cc1ccccc1)C(=O)N[C@H]1CSSC[C@@H](C(=O)N[C@H](C(N)=O)C(C)(C)C)NC(=O)[C@H](CC(N)=O)NC(=O)C(C)(C)NC(=O)[C@H](CCCNC(=N)N)NC(=O)[C@H](CCCCN)NC1=O [PSM-0458, DOTA-Pamb-Aib-Phe-[Cys-Lys-Arg-Aib-Asn-Cys]-Tle-NH2] ({DOTA-4Amb}-[Aib]FCKR[Aib]NC[Tle]-NH2; disulfide 3-8) | – |
| < 0.2 | < 0.0126 | C[C@@H](O)[C@H](NC(=O)[C@@H](NC(=O)[C@@H]1CSSC[C@H](NC(=O)[C@H](Cc2ccc(Cl)cc2)NC(=O)[C@](C)(CO)NC(=O)[C@@H](NC(=O)CC2CCN(C(=O)CN3CCN(CC(=O)O)CCN(CC(=O)O)CCN(CC(=O)O)CC3)CC2)[C@@H](C)O)C(=O)N[C@@H](CCCCN)C(=O)N[C@@H](CCCNC(=N)N)C(=O)N[C@@](C)(CO)C(=O)N[C@@H](CC(N)=O)C(=O)N1)C(C)(C)C)C(N)=O [PSM-0407, DOTA-Cmp-Thr-Ams-Pcf-[Cys-Lys-Arg-Ams-Asn-Cys]-Tle-Thr-NH2] ({DOTA}-[X1]T[αMeS][Phe(4-Cl)]CKR[αMeS]NC[Tle]T-NH2; disulfide 5-10) | – |
